System: Irritable Bowel Syndrome symptoms (pain associated with intestinal gas, bloating and constipation)
Experiment: Case report: patient suffering from IBS taking MCT orally
Format: in vivo, human
Experimental: Over a period of 8 weeks, the patient increased the dose of MCT to approx. 15 mL (in approx. 240 mL of soymilk) per day to achieve complete symptomatic relief from IBS.

Caprylic triglyceride [Neobee 895]
change in HDL, LDL and triglyceride levels (after 10 months of use of MCT): no noticeable change | adverse effects on continued use (continued use, approx. 1 year): without any adverse effects | continued relief from IBS symptoms (continued use, approx. 1 year): complete relief from the IBS symptoms | improvement of IBS symptoms (initially, one teaspoon (approx. 5 mL) MCT as emulsion in soymilk (approx. 240 mL) per day, one patient): some improvement | relief of IBS symptoms (one tablespoon (approx. 15 mL) MCT per day, oral, in approx. 240 mL soymilk, dose increased over 8 weeks, one patient): complete relief of the symptoms
